Counter-ions that a name gives are not always drawn.
What was measured:
VCAM-1 = VCAM-1 ELISA on lysates of TNF-α stimulated HUVECs; assay type: cell-based; settings: Homo sapiens, HUVEC, approx. 16 hours
Description: (§1) Compounds were dissolved in DMSO, aliquoted, and stored at −20° C. Cultured human vascular endothelial cells (HUVECs) were seeded in 96-well plates in complete EGM-2 media (˜100 μL/well); cells were plated at ˜2-3×10^5/mL, and were from passage 8 to 12. Cells were incubated overnight. On the following day cells are stimulated with TNF-α (˜1 ng/mL) in the presence or absence of compounds dissolved in DMSO. Triplicate wells were used for each test. To establish a dose curve and an IC50, multiple concentrations in 2- to 5-fold increments were used. Cells were exposed to TNF-α and compounds for approximately 16 hours. The next day, cells were visually examined via light microscopy to score for visual signs of toxicity. Cell culture media was analyzed using an MCP-1 ELISA. Cells were refed (−100 μL/well) with 20% CellTiter 96. Aqueous One Cell Proliferation Solution (Promega), 80% EGM-2 medium. Media optical density (at 490 nm) was determined after 1 hour. Plates were aspirated and cell lysates were prepared and these lysates were tested using a VCAM-1 ELISA.
(§2) In Table 2, a positive result (+) was defined as at least 50% inhibition of the protein levels MCP-1 or VCAM-1, as determined by the ELISA.

MCP-1 = MCP-1 ELISA on culture media of TNF-α stimulated HUVECs; assay type: cell-based; settings: Homo sapiens, HUVEC, approx. 16 hours
Description: as §1, §2

[1] = test system: Human coronary artery smooth muscle cells (CASMCs); assay: Smooth muscle cell proliferation protocol; assay type: cell-based; settings: 72 hours, read-out: % Inhibition of SMC Proliferation
Description: Compounds were dissolved in DMSO, aliquoted, and stored at −20° C. Human coronary artery smooth muscle cells (CASMCs) were plated in 96-well plates and were grown in SmBM-2 media. After 1-2 hours, media was aspirated and replaced with serum-free ME/F12 media, except the controls. Cells were incubated for a further 48 hours. Compounds were diluted in DME/F12 containing 10% FBS. Media was aspirated from the plates and compounds in DME/F12 containing 10% FBS. Six wells were used per condition and duplicate plates were used. Cells were incubated for a further 72 hours. Media was aspirated from one set of plates; those cells were refed (˜100 μL/well) with 20% CellTiter 96 Aqueous One Cell Proliferation Solution (Promega), 80% EGM-2 medium. Media optical density (at 490 nm) was determined after 3-4 hours. In the second set of plates, serum-free DME/F12 media (20 μL) was added to each well. Part of the supernatant (50 μL) was removed and placed in an ELISA plate and was stored temporarily at 4° C. The remaining media and cells in the second set of plates were freeze-thawed for four cycles. The lysates and supernatants were mixed and centrifuged. Part of the supernatant (50 μL) was removed and placed in an ELISA plate. The Promega Cytotox assay was performed on the ELISA plates. The ratio of supernatant OD to supernatant+cell lysate OD was determined.
In Table 2, a positive result (+) was defined as at least 40% inhibition of the proliferation of SMC, as determined by the assay.

| Structure (SMILES) | inhibition at 50 µM (VCAM-1) [%] | inhibition at 50 µM (MCP-1) [%] | inhibition at 50 µM [1] [%] | also measured |
| --- | --- | --- | --- | --- |
| Cc1cc(-c2cc(=O)c3cccnc3o2)cc(C)c1OCCN1CCOCC1 (as salt: hydrochloride) [EXAMPLE 31, 2-(3,5-dimethyl-4-(2-morpholinoethoxy)phenyl)-4H-pyrano[2,3-b]pyridin-4-one hydrochloride] | – | – | – | melting point: 276 to 278 °C |
| O=c1cc(-c2ccc(O)cc2)oc2ncccc12 [EXAMPLE 1, 2-(4-Hydroxy-phenyl)-pyrano[2,3-b]pyridin-4-one] | ≥ 50 | < 50 | < 40 | – |
| CN(C)Cc1ccc2c(=O)cc(-c3ccc(O)cc3)oc2n1 [EXAMPLE 26, 7-((dimethylamino)methyl-2-(4-hydroxyphenyl)-4H-pyrano[2,3-b]pyridin-4-one dihydrochloride] | < 50 | < 50 | ≥ 40 | – |
| O=c1cc(-c2ccc(F)cc2)oc2ncc(CN3CCCC3)cc12 [EXAMPLE 37, 2-(4-fluorophenyl)-6-(pyrrolidin-1-ylmethyl)-4H-pyrano[2,3-b]pyridin-4-one hydrochloride] | ≥ 50 | < 50 | ≥ 40 | – |
| Cc1cc(-c2cc(=O)c3cc(CN4CCCC4)cnc3o2)cc(C)c1O [EXAMPLE 33, 2-(4-hydroxy-3,5-dimethylphenyl)-6-(pyrrolidin-1-ylmethyl)-4H-pyrano[2,3-b]pyridin-4-one dihydrochloride] | < 50 | ≥ 50 | ≥ 40 | – |
| O=c1cc(-c2ccncc2)oc2ccccc12 [EXAMPLE 12, 2-Pyridin-4-yl-chromen-4-one] | ≥ 50 | ≥ 50 | ≥ 40 | – |
| Cc1cccc2oc(-c3ccncc3)cc(=O)c12 [EXAMPLE 49, 5-methyl-2-(pyridin-yl)-4H-chromen-4-one] | – | – | – | inhibition at 10 µM (VCAM-1): < 50%; inhibition at 10 µM (MCP-1): < 50%; inhibition at 10 µM [1]: < 40% |
| O=c1cc(-c2ccncc2)oc2ncccc12 [EXAMPLE 30, 2-(pyridin-4-yl)-4H-pyrano[2,3-b]pyridin-4-one hydrochloride] | < 50 | < 50 | ≥ 40 | – |
| COc1cc(OC)c2c(=O)[nH]c(-c3cc(C)c(OCCN4CCOCC4)c(C)c3)cc2c1 [EXAMPLE 48, 3-(3,5-dimethyl-4-(2-morpholinoethoxy)phenyl)-6,8-dimethoxyisoquinolin-1(2H)-one] | ≥ 50 | < 50 | ≥ 40 | – |
| CN(C)Cc1ccc2oc(-c3ccncc3)cc(=O)c2c1 [EXAMPLE 50, 6-((dimethylamino)methyl)-2-(pyridinyl)-4H-chromen-4-one] | < 50 | < 50 | ≥ 40 | – |
| CNc1nc(-c2cc(C)c(O)c(C)c2)cc2ccc(CN3CCN(C)CC3)cc12 [EXAMPLE 43, 2,6-dimethyl-4-(1-(methylamino)-7-((4-methylpiperazin-1-yl)methyl)isoquinolin-3-yl)phenol trihydrochloride] | ≥ 50 | ≥ 50 | ≥ 40 | – |
| CC(C)Oc1ccc(-c2cc(=O)c3cc(CN4CCCC4)cnc3o2)cc1 [EXAMPLE 39, 2-(4-isopropoxyphenyl)-6-(pyrrolidin-1-ylmethyl)-4H-pyrano[2,3-b]pyridinone hydrochloride] | ≥ 50 | ≥ 50 | ≥ 40 | – |
| COc1cc(OC)c2c(=O)cc(-c3ccncc3)oc2c1 [EXAMPLE 34, 5,7-dimethoxy-2-(pyridin-4-yl)-4H-chromen-4-one hydrochloride] | < 50 | < 50 | ≥ 40 | – |
| O=c1cc(-c2ccccc2)oc2ncc(CN3CCCC3)cc12 [EXAMPLE 35, 2-phenyl-6-(pyrrolidin-1-ylmethyl)-4H-pyrano[2,3-b]pyridin-4-one hydrochloride] | < 50 | < 50 | ≥ 40 | – |
| CC(C)(Sc1cc(C(C)(C)C)c(O)c(C(C)(C)C)c1)Sc1cc(C(C)(C)C)c(O)c(C(C)(C)C)c1 [Probucol, probucol, reference compound] | – | – | – | inhibition at 10 µM (VCAM-1): 19%; inhibition at 10 µM (MCP-1): 15% |
| Cc1cc(-c2cc3ncccc3c(=O)[nH]2)cc(C)c1O [EXAMPLE 40, 7-(4-hydroxy-3,5-dimethylphenyl)-1,6-naphthyridin-5(6H)-one hydrochloride] | < 50 | < 50 | ≥ 40 | – |
| O=c1cc(-c2ccc(O)cn2)oc2ccccc12 [EXAMPLE 11, 2-(5-Hydroxy-pyridin-2-yl)chromen-4-one] | < 50 | < 50 | < 40 | – |
| O=c1cc(-c2ccc(O)cc2)[nH]c2ccccc12 [EXAMPLE 14, 2-(4-Hydroxy-phenyl)-1H-quinolin-4-one] | ≥ 50 | ≥ 50 | < 40 | – |
| COc1cc(O)nc2cc(-c3cc(C)c(O)c(C)c3)[nH]c(=O)c12 [EXAMPLE 41, 2-hydroxy-7-(4-hydroxy-3,5-dimethylphenyl)-4-methoxy-1,6-naphthyridin-5(6H)-one dihydrochloride] | ≥ 50 | ≥ 50 | ≥ 40 | – |
| Cc1cc(-c2cc(=O)c3cccnc3o2)cc(C)c1OCCN1CCOCC1 [EXAMPLE 31, 2-(3,5-dimethyl-4-(2-morpholinoethoxy)phenyl)-4H-pyrano[2,3-b]pyridin-4-one hydrochloride] | ≥ 50 | < 50 | ≥ 40 | – |
| CC(C)(Sc1cc(C(C)(C)C)c(O)c(C(C)(C)C)c1)Sc1cc(C(C)(C)C)c(OC(=O)CCC(=O)O)c(C(C)(C)C)c1 [AGI1067, reference compound] | – | – | – | inhibition at 5 µM (VCAM-1; 5 uM): 68%; inhibition at 5 µM (MCP-1; 5 uM): 60% |
| O=c1cc(-c2ccncc2)oc2cccc(CO)c12 [EXAMPLE 51, 5-(hydroxymethyl)-2-(pyridin-4-yl)-4H-chromen-4-one] | < 50 | < 50 | < 40 | – |
| Nc1ccc(-c2cc(=O)c3cccnc3o2)cc1 [EXAMPLE 38, 2-(4-aminophenyl)-4H-pyrano[2,3-b]pyridin-4-one hydrochloride] | < 50 | < 50 | ≥ 40 | – |
| CN(C)CCOc1ccc(-c2cc(=O)c3cccnc3o2)cc1 [EXAMPLE 27, 2-(4-(2-(dimethylamino)ethoxy)phenyl)-4H-pyrano[2,3-b]pyridin-4-one dihydrochloride] | < 50 | < 50 | ≥ 40 | – |
| O=c1cc(-c2ccc(O)cc2)oc2cccnc12 [EXAMPLE 2, 2-(4-Hydroxy-phenyl)-pyrano[3,2-b]pyridin-4-one] | < 50 | < 50 | ≥ 40 | – |
| CO[C@H]1C[C@@H]2CC[C@@H](C)[C@@](O)(O2)C(=O)C(=O)N2CCCC[C@H]2C(=O)O[C@H]([C@H](C)C[C@@H]2CC[C@@H](O)[C@H](OC)C2)CC(=O)[C@H](C)/C=C(\C)[C@@H](O)[C@@H](OC)C(=O)[C@H](C)C[C@H](C)/C=C/C=C/C=C/1C [Rapamycin, rapamycin, reference compound] | – | – | 43 | – |
| O=C1C=C(c2ccc(O)cc2)C(=O)c2ccccc21 [EXAMPLE 20, 2-(4-Hydroxy-phenyl)-[1,4]naphthoquinone] | – | – | – | inhibition at 10 µM (VCAM-1): ≥ 50%; inhibition at 10 µM (MCP-1): < 50%; inhibition at 10 µM [1]: < 40% |
| Oc1ccc(C=Cc2cc(O)cc(O)c2)cc1 [Resveratrol, resveratrol, reference compound] | 54 | 47 | – | – |
| CC(=O)O[C@H]1C(=O)[C@@]2(C)[C@H]([C@H](OC(=O)c3ccccc3)[C@]3(O)C[C@H](OC(=O)[C@H](O)[C@@H](NC(=O)c4ccccc4)c4ccccc4)C(C)=C1C3(C)C)[C@]1(OC(C)=O)CO[C@@H]1C[C@@H]2O [Taxol, taxol, reference compound] | – | – | – | inhibition at 0.1 µM ([1]; 100 nM): 19% |
